Test results: patent publication US8853214B2, “Pyridazine compounds for controlling invertebrate pests” (BASF SE, priority 2010, dated 2014)

Test system: Aphis craccivora
Test: Cowpea aphid (Aphis craccivora) spray test on potted cowpea plants
Assay type: in vivo
Conditions: in comparison with untreated controls, population reduction assessed after 24, 72 and 120 hours
Description: II.1 Cowpea Aphid (Aphis craccivora)
The active compounds were formulated in 50:50 (vol:vol) acetone:water. The test solution was prepared at the day of use.
Potted cowpea plants colonized with 100-150 aphids of various stages were sprayed after the pest population had been recorded. Population reduction was assessed after 24, 72, and 120 hours.

Question: For `O=C(Nc1ccnnc1)c1ccco1` [II.31, Furan-2-carboxylic acid pyridazin-4-ylamide], which mortality at 500 ppm is on record?
Answer: ≥ 75%
